In patent publication US10414775B2 (Merck Sharp & Dohme Corp., priority 2016, dated 2019) one finds IC50 data, which are given here for five compounds.

As usually defined, the IC50 is the midpoint of a concentration-inhibition curve. Lower therefore signals greater potency.

The target of the series is T1, Human CYP8B1 (Homo sapiens, UniProt Q9UNU6).
T1 construct: tissue Xenotech; host or cells: human liver microsomes
T1 sequence (Q9UNU6 1-501): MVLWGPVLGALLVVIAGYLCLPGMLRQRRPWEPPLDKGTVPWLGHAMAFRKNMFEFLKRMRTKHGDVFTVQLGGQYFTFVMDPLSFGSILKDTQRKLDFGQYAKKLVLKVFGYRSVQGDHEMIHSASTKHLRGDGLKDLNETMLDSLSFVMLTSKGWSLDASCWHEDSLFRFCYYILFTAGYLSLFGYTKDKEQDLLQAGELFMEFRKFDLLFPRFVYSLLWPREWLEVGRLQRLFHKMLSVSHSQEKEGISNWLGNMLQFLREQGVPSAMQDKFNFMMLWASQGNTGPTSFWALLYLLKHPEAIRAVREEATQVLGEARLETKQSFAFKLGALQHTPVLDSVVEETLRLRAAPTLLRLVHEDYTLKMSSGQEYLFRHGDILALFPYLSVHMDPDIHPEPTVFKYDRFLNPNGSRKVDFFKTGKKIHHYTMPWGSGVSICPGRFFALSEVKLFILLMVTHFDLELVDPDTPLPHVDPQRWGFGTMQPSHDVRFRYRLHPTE
Description: Human Cyp8B1 Liver Microsome Assay. It counts as biochemical. The conditions noted are these: human liver microsomes; substrate 7α-hydroxy-4-cholesten-3-one, NADPH; 30 min pre-incubation, 45 min reaction; RapidFire MS readout. The gist of the method: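 Human liver microsomes (65 μg/ml, 0.1 M phosphate pH 7.4) preincubated 30 min at room temperature with inhibitor (1.25% DMSO final), then reacted 45 min with 7α-hydroxy-4-cholesten-3-one and NADPH. 7α,12α-dihydroxy product quantified by RapidFire ESI+ MRM against d7 internal standard; IC50 from four-parameter logistic fit.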
(Liver microsomes are a subcellular fraction often used to study metabolism.)

Regarding `C[C@@H]1CN(c2ccnc3cc(F)ccc23)CC[C@@H]1C(=O)N1CCn2c(nnc2C(F)(F)F)C1` [Example 22, [(3S,4S)-1-(7-fluoroquinolin-4-yl)-3-methylpiperidin-4-yl][3-(trifluoromethyl)-5,6-dihydro[1,2,4]tria-zolo[4,3-a]pyrazin-7(8H)-yl]methanone], the midpoint of inhibition, the IC50, lay at 19 nM. For the compound `Cc1cc(N2CC[C@H](C(=O)N3CCn4c(nnc4C(F)(F)F)C3)[C@H](C)C2)c2cc(F)ccc2n1` [Example 15, [(3S,4S)-1-(6-fluoro-2-methylquinolin-4-yl)-3-methylpiperidin-4-yl][3-(trifluoromethyl)-5,6-dihydro[1,2,4]tria-zolo[4,3-a]pyrazin-7(8H)-yl]methanone], it took 245 nM to reach half-maximal inhibition (IC50). Next, `C[C@@H]1CN(c2ccnc3cc(O)ccc23)CC[C@@H]1C(=O)N1CCn2c(nnc2C(F)(F)F)C1` [Example 38, [(3S,4S)-1-(7-hydroxyquinolin-4-yl)-3-methylpiperidin-4-yl][3-(trifluoromethyl)-5,6-dihydro[1,2,4]triazolo[4,3-a]pyrazin-7(8H)-yl]methanone]: 2890 nM; `C[C@@H]1CN(c2c(F)cnc3cc(C(F)F)ccc23)CC[C@@H]1C(=O)N1CCn2c(nnc2C(F)(F)F)C1` [Example 56, ((3S,4S)-1-(7-(difluoromethyl)-3-fluoroquinolin-4-yl)-3-methylpiperidin-4-yl)(3-(trifluoromethyl)-5,6-dihydro-[1,2,4]triazolo[4,3-a]pyrazin-7(8H)-yl)methanone]: 0.46 nM. For the compound `C[C@@H]1CN(c2ccnc3cc(OCc4ccccc4)ccc23)CC[C@@H]1C(=O)N1CCn2c(nnc2C(F)(F)F)C1` [Example 30], 3.91 nM corresponded to half-maximal inhibition (IC50).
